In ChEMBL document CHEMBL3751787, “Novel chromenedione derivatives displaying inhibition of protein tyrosine phosphatase 1B (PTP1B) from Flemingia philippinensis” (Bioorg Med Chem Lett, 2016):
pIC50, pKi: −log10 of the molar value.

Columns and labels:
[1] = target: T1, Tyrosine-protein phosphatase non-receptor type 1 (Homo sapiens, UniProt P18031); experiment: Non-competitive inhibition of human recombinant PTP1B using p-nitrophenyl phosphate as substrate by spectrophotometry based Lineweaver-Burk plot
T1 sequence (P18031 whole entry): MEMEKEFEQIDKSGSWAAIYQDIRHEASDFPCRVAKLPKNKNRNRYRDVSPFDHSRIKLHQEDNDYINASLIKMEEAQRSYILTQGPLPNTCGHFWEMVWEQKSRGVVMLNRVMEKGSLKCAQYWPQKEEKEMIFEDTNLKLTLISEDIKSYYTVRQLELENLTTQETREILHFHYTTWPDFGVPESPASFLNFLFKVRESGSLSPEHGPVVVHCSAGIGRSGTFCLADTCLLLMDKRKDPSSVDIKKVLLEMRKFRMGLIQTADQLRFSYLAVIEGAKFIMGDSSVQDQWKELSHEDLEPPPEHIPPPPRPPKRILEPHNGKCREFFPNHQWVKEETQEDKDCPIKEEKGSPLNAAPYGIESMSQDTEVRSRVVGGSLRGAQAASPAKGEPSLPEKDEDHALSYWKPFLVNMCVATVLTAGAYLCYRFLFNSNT

[2] = target: T1, Tyrosine-protein phosphatase non-receptor type 1; experiment: Inhibition of human recombinant PTP1B using p-nitrophenyl phosphate as substrate by spectrophotometric analysis
[3] = target: T1, Tyrosine-protein phosphatase non-receptor type 1; experiment: Competitive inhibition of human recombinant PTP1B using p-nitrophenyl phosphate as substrate by spectrophotometry based Lineweaver-Burk plot

Row | SMILES | pKi [1] | pIC50 [2] | pKi [3]
1 | CC(C)=CCc1c(O)c(CC=C(C)C)c2occ(-c3ccc(O)cc3)c(=O)c2c1O | 5.02 | 5.03 | 
2 | COc1cc(-c2coc3c(CC=C(C)C)c(O)c(CC=C(C)C)c(O)c3c2=O)ccc1O [FLEMINGSIN] | 4.72 | 4.76 | 
3 | COc1ccc(CC/C(O)=C2\C(=O)C(CC=C(C)C)=C3OC(C)(C)C=CC3(CC=C(C)C)C2=O)cc1O (stereo unspecified) |  | 4.69 | 4.91
4 | CC(C)=CCc1c2c(c(O)c3c(=O)c(-c4ccc(O)c(O)c4)coc13)C=CC(C)(C)O2 [AURICULASIN] | 5.36 | 5.44 | 

More lines, in order of rising pIC50 [2], values ahead:

Row | pKi [1] | pIC50 [2] | pKi [3] | SMILES
5 |  | 4.53 | 4.75 | COc1ccc(CCC(=O)C2=C(O)C(CC=C(C)C)=C3OC(C)(C)C=CC3(CC=C(C)C)C2=O)cc1O (stereo unspecified)
6 | 4.52 | 4.63 |  | CC(C)=CCc1c2c(c3occ(-c4ccc(O)cc4)c(=O)c3c1O)C=CC(C)(C)O2 [OSAJIN]
7 |  | 5.19 | 5.47 | COc1ccc(CCC(=O)C2=C(O)C(CC=C(C)C)=C3OC(C)(C)C=CC3(CC=C(C)C)C2=O)cc1 (stereo unspecified)
8 | 5.60 | 5.62 |  | CC(C)=CCc1c(O)c(CC=C(C)C)c2occ(-c3ccc(O)c(O)c3)c(=O)c2c1O
